In one data set the test system is HIV. The data set can be described thus: in vitro anti-HIV assay: inhibition of HIV-induced cytopathic effect in MT-4 cells (MTT). It counts as cell-based. Conditions: pSI = pCC50-pIC50 (selectivity index CC50/IC50). A general note: Protection from cytopathic effect is a common read-out in antiviral testing.
Data set [1] can be described thus: cytotoxicity (CC50) in mock-infected MT-4 cells (MTT). Conditions: human, mock-infected MT-4 cells, −log CC50, MTT. It is filed as cell-based.
Protocol: (§1) A rapid, sensitive and automated assay procedure was used for the in vitro evaluation of anti-HIV agents. […] Inhibition of the HIV-induced cytopathic effect was used as the end point. The viability of both HIV- and mock-infected cells was assessed spectrophotometrically via the in situ reduction of 3-(4,5-dimethylthiazol-2-yl)-2,5-diphenyltetrazolium bromide (MTT). The 50% cytotoxic concentration (CC50 in M) was defined as the concentration of compound that reduced the absorbance of the mock-infected control sample by 50%. The percent protection achieved by the compound in HIV-infected cells was calculated by the following formula:
(§2) [formula] whereby (ODT)HIV is the optical density measured with a given concentration of the test compound in HIV-infected cells; (ODC)HIV is the optical density measured for the control untreated HIV-infected cells; (ODC)MOCK is the optical density measured for the control untreated mock-infected cells; all optical density values were determined at 540 nm. The dose achieving 50% protection according to the above formula was defined as the 50% inhibitory concentration (IC50 in M). The ratio of CC50 to IC50 was defined as the selectivity index (SI).

The values below come from patent US9192577B2, “Pharmaceutical compositions comprising a basic drug compound, a surfactant, and a physiologically tolerable water soluble acid” (Janssen Pharmaceutica NV, priority 2002, dated 2015).

Protocol for HIV: as §1, §2

`Cc1cc(-c2ccc(C#N)o2)cc(C)c1Nc1ccnc(Nc2ccc(C#N)cc2)n1` [Compound 126] showed a melting point of more than 260 °C. This compound yielded a pSI in the data set with HIV of −3.5. The compound further showed a cytotoxic concentration (CC50) in data set [1] of 12.6 µM.

As a reminder, the CC50 is the concentration at which the toxic effect on the cells reaches its halfway point. Read a low CC50 as greater toxicity to the cells. What is called melting point is the temperature of the solid-liquid transition.
